Laboratory results as given in article PMC5897774, “Mitotic spindle association of TACC3 requires Aurora‐A‐dependent stabilization of a cryptic α‐helix” (The EMBO Journal, 2018).
Residues, ends and D or L forms follow the SMILES beside them. No end group written: not given here.

T1: Aurora‐A (Homo sapiens, UniProt O14965, C290A/C393A)
T1 construct: pET30TEV Aurora‐A 122–403 C290A, C393A; made in house
T1 sequence (O14965 122-403 C290A/C393A): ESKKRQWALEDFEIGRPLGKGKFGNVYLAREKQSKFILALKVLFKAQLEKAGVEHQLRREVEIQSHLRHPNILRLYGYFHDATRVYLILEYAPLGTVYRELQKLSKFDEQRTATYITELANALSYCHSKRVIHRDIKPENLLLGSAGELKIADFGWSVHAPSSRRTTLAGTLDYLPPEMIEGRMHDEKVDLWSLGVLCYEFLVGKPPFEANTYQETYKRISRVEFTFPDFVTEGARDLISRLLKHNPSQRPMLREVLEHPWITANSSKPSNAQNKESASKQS

T2: FAM‐TACC3 549–570 phosphorylated on S558 (FAM‐phospho‐TACC3^CID) (human, UniProt Q9Y6A5 549-570, fluorescein (FAM) label; phosphoserine at 558)
T2 construct: TACC3, human, aa549–570 (TACC3^CID); also called pTACC3^CID; FAM‐labelled pTACC3^CID; source: FAM‐labelled peptide (FAM‐TACC3 peptides: PPR, Cambridge; Almac, Craigavon)
T2 peptide (looked up): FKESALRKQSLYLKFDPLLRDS


How the values were obtained:
Aurora‐A [1] = molecular target: T1, Aurora‐A; experiment: FP binding assay, FAM-TACC3 peptides to Aurora‐A (WT); details: fluorescence polarization
Method: The contributions of the site 1 residues to the interaction were quantified using fluorescence polarization spectroscopy (FP) with a set of fluorescein (FAM)‐labelled peptides. […] Mutations within the pocket on Aurora‐A which accommodates the F525 side chain (E134A, R137A, L149A, R151A and I158A mutations) all reduced the affinity for the WT TACC3 522–536 peptide.
Aurora‐A/TACC3 fluorescence polarization assays were performed as stated (Richards et al, 2016) using FAM‐TACC3 peptides (PPR, Cambridge; Almac, Craigavon). Binding assays were performed in triplicate. FP signal was fit to a one‐site total binding model in Prism 6 (GraphPad). Results are reported as K d ± SE.

[2] = tested on: mitotic spindle, HeLa cells; experiment: Spindle localization of re‐expressed GFP‐CHC constructs in CHC‐depleted HeLa cells; format: cell-based, human; details: metaphase, endogenous CHC depleted, confocal imaging
Method: For RNAi and re‐expression of GFP‐tagged proteins in HeLa cells, siRNA and pBrain plasmids were used. Briefly, for TACC3, cells were transfected with siRNA on day 0, transfected 10 h later with pBrain plasmid and analysed on day 2. For CHC, cells were transfected with siRNA on day 0, transfected with pBrain plasmids on day 2 and fixed on day 4.
For immunofluorescence studies on the CHC/TACC3 interface mutants, cells were fixed with PTEMF (50 mM PIPES, pH 7.2, 10 mM EGTA, 1 mM MgCl2, 0.2% Triton X‐100, and 4% paraformaldehyde) for 15 min at RT, and then permeabilized (PBS with 0.1% Triton X‐100) for 10 min. Cells were blocked (PBS with 3% BSA, 5% goat serum) for 30 min, and then incubated for 1 h with the specified primary antibodies: mouse anti‐CHC (X22, Affinity BioReagents, 1:1,000), rabbit anti‐alpha tubulin (Thermo, PA5‐19489, 1:1,000), mouse anti‐TACC3 (AbCam, ab56595, 1:1,000). Secondary antibodies labelled with Alexa Fluor 568 or Alexa Fluor 647 from Life Technologies (diluted 1:500) were used along with DAPI. […] Equal exposure settings and scaling were used between conditions.
For spindle enrichment analysis, mean pixel density in two 10 × 10 pixel ROI was measured either over the spindle (away from poles), in the cytoplasm or in a non‐cell region of background, using ImageJ. Background was subtracted from the spindle and cytoplasm measurements, and spindle fluorescence was then divided by cytoplasm fluorescence. Sample sizes 48–53 cells (TACC3) and 36–51 cells (CHC) over two experiments were analysed per condition. […] Differences in spindle recruitment were evident at all expression levels. IgorPro was used to find and plot the ratio of spindles to cytoplasmic fluorescence intensity per cell. Images were cropped in ImageJ, and figures were assembled in Adobe Illustrator. Some images were contrast adjusted for presentation.

Aurora‐A [3] = molecular target: T1, Aurora‐A; experiment: Radioactive 32P‐ATP kinase assay, MBP substrate; format: biochemical; details: 0.625 μM phosphorylated Aurora‐A, 5 μM TACC3^N‐ACID, 0.25 mg/ml MBP, 10 min, scintillation counting, duplicate
Method: Figure EV2 Biochemical and structural analysis of the Aurora‐A/TACC3 complex • FP assay between FAM‐TACC3 519–570 and Aurora‐A. Reactions were performed in triplicate. Error bars represent standard deviation. […] Error bars represent standard deviation. […] This peptide was based on the location of a sulphate ion, originating from the crystallization solution, at the interface of the Aurora‐A/TACC3 interface in the crystal structure, close to TACC3 T534. […] Myelin basic protein (MBP) was used as a generic kinase substrate. Incorporation of radioisotope was measured by scintillation counting. Reactions were performed in duplicate. Error bars represent standard error. Assays were compared to the WT TACC3^N‐ACIDH6c reaction by one‐way ANOVA with Dunnett's post hoc test. […], **P < 0.01 and ****P < 0.0001. • Multiple sequence alignment of TACC3 (above) and Aurora‐A (below) orthologs spanning the interaction binding interface. Key binding residues are boxed in red. The TACC3 phosphorylation sites, S552 and S558, are boxed in blue. The TACC3 LL motif required for binding to CHC is boxed in green. The TACC3 α‐helix produced on binding to CHC is identified by a black line. TEXT PRINTED IN THE PICTURE: (A) TACC3 519-570: 3.0 ± 0.2 μM | (B) WT: 20 ± 1 μM | (B) R526A: 49 ± 2 μM | (B) phospho-T534: 14 ± 1 μM
Radioactive ^32P‐ATP kinase assays were performed as described previously (Burgess et al, 2015). In brief, 0.625 μM Aurora‐A^M3KD WT or selected mutant was incubated with 0.25 mg/ml MBP alone and in the presence of 5 μM TACC3^N‐ACID WT or mutant for 10 min. Reactions were terminated by the addition of 2% (v/v) orthophosphoric acid. Samples were spotted onto P81 Whatman paper, washed extensively with 0.2% (v/v) orthophosphoric acid and incorporation of radioisotope measured by scintillation counting.

[4] = molecular target: T2, FAM‐TACC3 549–570 phosphorylated on …; experiment: fluorescence polarisation; CHC proteins serially diluted in 20 mM HEPES–NaOH pH 7.5, 200 mM NaCl, 5 mM DTT; 50 nM FAM‐labelled TACC3 peptide; 30 min at room temperature; read at 25°C; details: both partners purified

Molecule | spindle localization of GFP‐CHC construct [2] | further results
CC(C)[C@H](NC(=O)[C@H](CCC(=O)O)NC(=O)[C@H](C)NC(=O)[C@@H]1CCCN1C(=O)[C@H](CC(=O)O)NC(=O)[C@H](CCCNC(=N)N)NC(=O)[C@H](Cc1ccccc1)NC(=O)[C@H](CO)NC(=O)[C@H](CCC(=O)O)NC(=O)[C@H](CCC(=O)O)NC(=O)c1ccc2c(c1)C(=O)OC21c2ccc(O)cc2Oc2cc(O)ccc21)C(=O)N[C@@H](C)C(=O)NCC(=O)N[C@H](C(=O)NCC(=O)N[C@@H](C)C(=O)O)[C@@H](C)O [L532A] (HELM PEPTIDE1{[O=C1OC2(c3ccc(O)cc3Oc3cc(O)ccc32)c2ccc(C(=O)[*:2])cc21].E.E.S.F.R.D.P.A.E.V.A.G.T.G.A}$$$$V2.0; N-terminus and C-terminus assumed) |  | reduced affinity (Aurora‐A [1]; relative to WT TACC3 522–536 peptide): 10 fold
ELKEESFRDPAEVLGTGAEVDYLEQFGTSSFKESALRKQSLYLKFDPLLRDS [FAM‐TACC3 519–570] |  | Kd (Aurora‐A [1]; FAM‐labelled peptide, triplicate, one‐site total binding fit, legend: mean of three experiments ± SD, methods: K d ± SE, read-out: K d (binding affinity)): 3 ± 0.2 µM
GFP‐CHC D455K: mutation of a residue that holds R481 in place | impaired in spindle localization | 
GFP‐CHC L476D, L480D: GFP-CHC mutated in the TACC3 binding site | impaired in spindle localization | 
GFP‐CHC L503A, Y504A: GFP-CHC mutated in the TACC3 binding site | impaired in spindle localization | 
GFP‐CHC R481E: GFP-CHC mutated in the TACC3 binding site | impaired in spindle localization | 
TACC3^N‐ACID L532A: TACC3^N-ACID with L532A mutation (ELKEESFRDPAEVAGTGAEVDYLEQFGTSSFKESALRKQSLYLKF; not fully specified (C-terminus)) |  | stimulation of Aurora‐A activity (Aurora‐A [3]): twofold–threefold
CHC 1–574 F492Y (domain or fragment, UniProt Q00610 1-574, looked up, source: expressed and purified as the WT protein (modified pGEX vector; GST cleaved with TEV)) MAQILPIRFQEHLQLQNLGINPANIGFSTLTMESDKFICIREKVGEQAQVVIIDMNDPSNPIRRPISADSAIMNPASKVIALKAGKTLQIFNIEMKSKMKAHTMTDDVTFWKWISLNTVALVTDNAVYHWSMEGESQPVKMFDRHSSLAGCQIINYRTDAKQKWLLLTGISAQQNRVVGAMQLYSVDRKVSQPIEGHAASFAQFKMEGNAEESTLFCFAVRGQAGGKLHIIEVGTPPTGNQPFPKKAVDVFFPPEAQNDFPVAMQISEKHDVVFLITKYGYIHLYDLETGTCIYMNRISGETIFVTAPHEATAGIIGVNRKGQVLSVCVEEENIIPYITNVLQNPDLALRMAVRNNLAGAEELFARKFNALFAQGNYSEAAKVAANAPKGILRTPDTIRRFQSVPAQPGQTSPLLQYFGILLDQGQLNKYESLELCRPVLQQGRKQLLEKWLKEDKLECSEELGDLVKSVDPTLALSVYLRANVPNKVIQCYAETGQVQKIVLYAKKVGYTPDWIFLLRNVMRISPDQGQQFAQMLVQDEEPLADITQIVDVFMEYNLIQQCTAFLLDALKNNR |  | fold increase in Kd against WT [4]: > 6 fold
